In patent US20090022739A1, “MODULATING THE KV1.1 VOLTAGE-GATED POTASSIUM CHANNEL IN T-CELLS FOR REGULATING THE […] AND SECRETION OF TUMOR NECROSIS FACTOR ALPHA (tnf-ALPHA) AND TREATING HUMAN DISEASE OR INJURIES MEDIATED BY […] HIGH OR LOW LEVELS OF TNF-ALPHA” (priority 2005, published 2009):
Where two headings read alike, the source gives them in different places. No end group written: not given here.

How the values were obtained:
[1] = tested on: high-grade STS; settings: cited from earlier work
[2] = tested on: melanoma in-transit metastases; settings: ILP; cited from earlier work
[3] = tested on: host ED1-positive cells in the liver; settings: administration of TNF-α into the brain; Campbell et al, 2005; cited from earlier work
[4] = tested on: normal human T-cells; format: cell-based; settings: for effect on DTX-K-induced TNF-α secretion: 100 μM blocker added 5 min before 100 nM DTX-K, FIG. 2K; for fold increase in TNFα secretion: FIG. 1A, DTX-K 100 nM, other blockers at highest concentration used
Method: Human T-Cells: Normal human T-cells were purified from peripheral blood of healthy donors as described (Levite et al, 2000; Ganor et al, 2003; Levite t al, 1998), and the resulting cell population, containing ≧90% T-cells, was suspended in RPMI medium supplemented with 10% FCS, 1% L-Glutamine and antibiotics (Biological Industries, Bet Haemek, Israel) and maintained at 2×10^6 cells/ml (37° C./5% CO2).
Determination of TNF-α, IFN-γ, IL-10 and IL-4 by ELISA: Freshly-purified normal resting human T-cells (2×10^6/ml) were incubated in 24-well plates (Costar, Corning, N.Y.) and the various channel blockers were added. […] Cytokine levels were measured in supernatants after 24 hours for TNF-α and IFN-γ and after 72 hours for IL-10 and IL-4, by quantitative sandwich ELISA (R&D, Minneapolis, Minn.), according to the manufacturer's instructions. […]
These 12 blockers were selected on the basis of their reported ability to block most types of K^+, Na^+, Ca^2+ and Cl^− channels expressed in T-cells (Deutsch et al, 1986; Lewis et al, 1995; Lewis et al, 1988; Rader et al, 1996; Freedman et al, 1995; Koo et al, 1997; Lin et al, 1993; Ishida et al, 1993; Jensen et al, 1999; Kotturi et al, 2003; Phipps et al, 1996; Verheugen et al, 1997; Levite et al, 2000; Chandy et al, 1984). The levels of TNFα secreted into the culture media were tested 24 hours later by ELISA. For positive control, the cells were exposed to the potent phorbol ester PMA, know to activate T-cells in a non-specific manner. The results are shown in FIG. 1A and represent fold increase ±SD TNF-α secretion tested in 2-3 independent experiments. Each ion channel blocker was examined in at least two independent experiments, and at several concentrations covering its effective range (see Materials and Methods). The numbers in each figure next to each blocker represent the highest molar concentration used. Statistical analysis: *P=0.0001, 0.0005, 0.0011 and 0.0005 vs. untreated for MgTX, KTX, DTX-K and PMA, respectively (Student's t-test).

[5] = tested on: Kv1.1, Kv1.2 and Kv1.3; settings: cited from earlier work
[6] = tested on: cloned Kv1.1, Kv1.2 and Kv1.6 channels; settings: cited from earlier work
[7] = target: Kv1.1 voltage-gated potassium channel of normal human peripheral T-cells (human) (UniProt Q09470); test: cell-based or functional assay
[8] = tested on: ion channels; settings: manufacturer's data sheets and/or the literature; cited from earlier work
[9] = target: T1, Kv1.1 (Homo sapiens, UniProt Q09470); settings: Gutman et al, 2003; cited from earlier work
[10] = target: T1, Kv1.1; settings: cited from earlier work
[11] = target: Kv1.2 (Homo sapiens, UniProt P16389); settings: cited from earlier work
[12] = target: T2, Kv1.3 (Homo sapiens, UniProt P22001); settings: cited from earlier work
T2 construct: host or cells: Xenopus laevis oocytes

[13] = target: Shaker B K^+-channels (Drosophila melanogaster, UniProt P08510); settings: at 100 nM concentration; cited from earlier work
[14] = multicenter trials in Europe, ILP for STS
[15] = 24 hours, several effective concentrations, no other stimulus

T1 sequence (Q09470 whole entry): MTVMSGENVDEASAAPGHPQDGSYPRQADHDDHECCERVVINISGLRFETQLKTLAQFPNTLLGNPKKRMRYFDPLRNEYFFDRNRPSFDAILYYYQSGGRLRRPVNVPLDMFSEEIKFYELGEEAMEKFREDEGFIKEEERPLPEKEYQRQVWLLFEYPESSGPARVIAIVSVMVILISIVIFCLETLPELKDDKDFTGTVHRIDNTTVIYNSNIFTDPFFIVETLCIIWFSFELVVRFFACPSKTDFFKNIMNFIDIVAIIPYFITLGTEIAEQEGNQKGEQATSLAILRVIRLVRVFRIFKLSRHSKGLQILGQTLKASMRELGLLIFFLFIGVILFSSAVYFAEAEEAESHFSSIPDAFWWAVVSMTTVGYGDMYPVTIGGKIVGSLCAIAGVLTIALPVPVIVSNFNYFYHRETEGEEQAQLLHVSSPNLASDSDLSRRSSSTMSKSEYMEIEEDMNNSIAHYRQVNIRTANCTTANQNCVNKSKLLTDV
Chain of Kv1.1 voltage-gated potassium channel of normal human peripheral T-cells (human) (Q09470 whole entry): as above
T2 sequence (P22001 whole entry): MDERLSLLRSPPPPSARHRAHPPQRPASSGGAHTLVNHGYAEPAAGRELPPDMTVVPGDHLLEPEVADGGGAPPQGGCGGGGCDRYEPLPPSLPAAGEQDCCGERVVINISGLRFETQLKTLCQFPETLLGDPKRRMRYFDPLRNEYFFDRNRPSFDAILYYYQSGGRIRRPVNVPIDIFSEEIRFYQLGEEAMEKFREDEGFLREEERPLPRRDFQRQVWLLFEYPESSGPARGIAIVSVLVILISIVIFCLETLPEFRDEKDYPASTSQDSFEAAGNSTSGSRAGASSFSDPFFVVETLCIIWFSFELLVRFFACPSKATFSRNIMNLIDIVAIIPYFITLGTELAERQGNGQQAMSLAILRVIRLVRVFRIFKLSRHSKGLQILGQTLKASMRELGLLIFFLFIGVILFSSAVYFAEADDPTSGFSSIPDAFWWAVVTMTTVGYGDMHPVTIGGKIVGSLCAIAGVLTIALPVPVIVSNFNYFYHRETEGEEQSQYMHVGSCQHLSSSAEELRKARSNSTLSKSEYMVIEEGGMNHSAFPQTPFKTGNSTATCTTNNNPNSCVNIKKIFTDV
Chain of Shaker B K^+-channels (P08510 whole entry): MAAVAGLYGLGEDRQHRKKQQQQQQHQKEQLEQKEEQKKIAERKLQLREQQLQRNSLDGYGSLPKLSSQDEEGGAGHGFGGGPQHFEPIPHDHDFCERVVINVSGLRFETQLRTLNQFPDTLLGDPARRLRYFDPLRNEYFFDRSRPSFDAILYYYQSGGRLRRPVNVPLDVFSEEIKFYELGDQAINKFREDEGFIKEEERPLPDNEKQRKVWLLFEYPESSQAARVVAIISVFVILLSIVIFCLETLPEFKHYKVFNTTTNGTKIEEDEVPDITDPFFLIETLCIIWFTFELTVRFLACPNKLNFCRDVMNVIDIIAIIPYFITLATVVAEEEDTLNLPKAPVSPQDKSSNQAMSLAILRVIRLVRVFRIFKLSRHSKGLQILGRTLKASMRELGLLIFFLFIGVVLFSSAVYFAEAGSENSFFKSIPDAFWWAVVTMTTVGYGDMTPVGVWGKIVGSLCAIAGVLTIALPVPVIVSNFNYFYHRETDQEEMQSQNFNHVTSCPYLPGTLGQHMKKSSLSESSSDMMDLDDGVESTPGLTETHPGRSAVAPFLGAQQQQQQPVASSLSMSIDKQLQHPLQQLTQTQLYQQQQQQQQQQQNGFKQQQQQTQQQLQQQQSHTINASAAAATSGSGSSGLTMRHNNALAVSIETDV

Molecule: TNF-α
- major response rates, median ([1]; largest single-center studies in STS, range 58%-91%): 76%
- median limb salvage rate ([1]; largest single-center studies in STS, range 58%-97%): 84%
- median limb salvage rate [1, 14]: 82%
- overall response rate [1, 14]: 76%
- complete response (CR) rate [2]: 70%-90%
- overall response rate [2]: 95%-100%
- increase in the number of host ED1-positive cells accumulated in the liver [3]: up to two fold increase

Molecule: NC1=N[C@H](O)[C@H]2[C@H]3O[C@]4(O)O[C@@H]([C@@H](O)[C@@]2(N1)[C@@H]4O)[C@]3(O)CO [TTX, Tetrodotoxin]
- TNF-α up-regulation [4]: no significant TNF-α up-regulation

Molecule: rHongotoxin-1: Centruroides limbatus toxin, blocks Kv1.1, Kv1.2 and Kv1.3 (TVIDVKCTSPKQCLPPCKAQFGIRAGAKCMNGKCKCYPH; ends and bridges not checked; cysteine pairing not given here; UniProt P59847 1-39, looked up)
- blocking concentration, Kv1.1, Kv1.2 and Kv1.3 [5]: 0.1 to 0.2 pM

Molecule: COC(=O)C1=C(C)NC(C)=C([N+](=O)[O-])C1c1ccccc1C(F)(F)F (stereo not drawn) [+Bay K, R-(+)-Bay K8644]
- effect on DTX-K-induced TNF-α secretion ([4]; 24 hours): prevented completely
- TNF-α up-regulation [4, 15]: no significant TNF-α up-regulation

Molecule: Alpha-dendrotoxin
- concentration range blocking cloned Kv1.1, Kv1.2 and Kv1.6 channels [6]: low nanomolar range

Molecule: CCCCCCCCCCCCCC(=O)O[C@@H]1[C@@H](C)[C@@]2(O)[C@@H](C=C(CO)C[C@]3(O)C(=O)C(C)=C[C@@H]23)[C@@H]2C(C)(C)[C@]12OC(C)=O [PMA]
- fold increase in TNFα secretion ([4]; 24 hours, no other stimulus): 41.3 fold increase

Molecule: Clc1ccccc1C(c1ccccc1)(c1ccccc1)n1ccnc1 [CLT, Clotrimazole]
- TNF-α up-regulation [4]: no significant TNF-α up-regulation

Molecule: rMargatoxin (from UniProt P40755 1-39) (peptide)
- fold increase in TNFα secretion by human T-cells (ELISA, 24 h) [7]: 6.5 fold

Molecule: C=C[C@H]1C[N@@]2CC[C@H]1C[C@H]2[C@H](O)c1ccnc2ccc(OC)cc12 [Quinine]
- TNF-α up-regulation [4, 15]: no significant TNF-α up-regulation
- effective concentrations [8]: 1 to 10 µM

Molecule: Kaliotoxin (GVEINVKCSGSPQCLKPCKDAGMRFGKCMNRKCHCTPK) [KTX]
- fold increase in TNFα secretion ([4]; 24 hours, no other stimulus): 15.1 fold increase
- Ki [9]: 20 nM
- Kd ([10]; bath application to Xenopus laevis oocytes, Mourre et al, 1999, read-out: K(d), recombinant Kv1.1): 1.5 nM
- Kd ([11]; bath application to Xenopus laevis oocytes, Mourre et al, 1999, read-out: K(d), recombinant Kv1.2): 25 nM
- Kd ([12]; bath application to Xenopus laevis oocytes, Mourre et al, 1999, read-out: K(d), recombinant Kv1.3): 0.1 nM
- effective concentrations [8]: 0.001 to 0.1 µM

Molecule: O=C(O)c1cc([N+](=O)[O-])ccc1NCCCc1ccccc1 [NPPB]
- effect on DTX-K-induced TNF-α secretion ([4]; 24 hours): no such interrupting effect
- TNF-α up-regulation [4, 15]: no significant TNF-α up-regulation
- effective concentrations [8]: 100 to 200 µM

Molecule: Pi4: 38-amino acid long peptide from the venom of the scorpion Pandinus imperator (IEAIRCGGSRDCYRPCQKRTGCPNAKCINKTCKCYGCS; UniProt P58498 1-38, looked up)
- block of Shaker B K^+-channels [13]: blocks completely and reversibly

Molecule: Nc1ccncc1 [4-AP, 4-Aminopyridine]
- TNF-α up-regulation [4, 15]: no significant TNF-α up-regulation

Molecule: N#Cc1cc2[nH]c(=O)c(=O)[nH]c2cc1[N+](=O)[O-] [CNQX]
- TNF-α up-regulation [4, 15]: no significant TNF-α up-regulation

Molecule: rMargatoxin (TIINVKCTSPKQCLPPCKAQFGQSAGAKCMNGKCKCYPH) [MgTX]
- fold increase in TNFα secretion ([4]; 24 hours, no other stimulus): 6.5 fold increase

Molecule: N[C@@H](Cc1ccc(N(CCCl)CCCl)cc1)C(=O)O [melphalan]
- complete response (CR) rate [2]: ~50%
- overall response rate [2]: 80%

Molecule: maurotoxins: natural and synthetic maurotoxins, four disulfide bridges scorpion toxin (VSCTGSKDCYAPCRKQTGCPNAKCINKSCKCYGC; disulfide (positions not given here); also: four disulfide bridges, pairing not given here; UniProt P80719 1-34, looked up)
- IC50 ([10]; Xenopus oocytes, Rochat et al, 1998, read-out: half-effects (IC50), Kv1.1): ~40 nM
- IC50 ([11]; Xenopus oocytes, Rochat et al, 1998, read-out: half-effects (IC50), Kv1.2): ~0.8 nM
- IC50 ([12]; Xenopus oocytes, Rochat et al, 1998, read-out: half-effects (IC50), Kv1.3): ~150 nM

Molecule: CC[N+](CC)(CC)CC [TEA, Tetraethylammonium]
- TNF-α up-regulation [4]: no significant TNF-α up-regulation

Molecule: Kaliotoxin (from UniProt P24662 1-38) (peptide)
- fold increase in TNFα secretion by human T-cells (ELISA, 24 h) [7]: 15.1 fold

Molecule: rCharybdotoxin [CTX]
- TNF-α up-regulation [4, 15]: no significant TNF-α up-regulation
